Patent publication US7348400B2 (priority 2001, dated 2008)

Experiments:
[1] = test system: nAChR; type: binding, bovine
[2] = test system: unmyelinated primary afferent sensory nerves; conditions: rat, in vivo

C[N+]1(C)CCN(c2ccccc2)CC1.[I-] [DMPP, 1,1-dimethyl-4-phenylpiperazinium iodide]
displacement of 3H-epibatidine binding [1]: displaced

Clc1ccc(C2CC3CCC2N3)cn1 (stereo not drawn) [^3H-epibatidine, epibatidine]
Hill coefficient of 3H-epibatidine binding [1]: 1.08

C[N+](C)(C)CCOC(N)=O [carbachol]
displacement of 3H-epibatidine binding [1]: displaced

Nc1cc[nH]c(=O)n1 [cytosine]
displacement of 3H-epibatidine binding [1]: displaced

CN1CCCC1c1cccnc1 (stereo not drawn) [nicotine]
displacement of 3H-epibatidine binding [1]: displaced

ω-conotoxin GVIA
inhibition of the vascular response to LFES of sensory nerves [2]: significant inhibition
